In patent US11219625B2, “Inhibitors of N-linked glycosylation and methods using same” (YALE UNIVERSITY, priority 2015, dated 2022):

Experiments:
N-linked glycosylation = experiment: D54-ERLucT cell based luciferase assay for inhibition of N-linked glycosylation; details: D54-ERLucT cells, luciferase activation
Text: (§1) The HTS approach using the bioluminescent N-linked glycosylation reporter (CCR 2011) in D54-ERLucT and D54-LucT cells has been previously described (Bennett, et al., Transl Oncol 2013, 6, 382-391). Briefly, the primary cell-based screen detects site occupancy of NLG sequons using a modified luciferase protein translated into the ER. […] The methodology for the primary (D54-ERlucT), secondary (D54-LucT), and tertiary (luciferase inhibition) screens as well and toxicity assays with CelltitreGlo are deposited in Pubchem (AID 588693).
The primary screen was developed in the D54 glioma cell line using a modified P. pyralis luciferase gene (ER-LucT) that is ER translated and glycosylated at three N-linked glycosylation consensus sequences. Glycosylation of the reporter inactivates luciferase enzymatic activity providing a robust methodology to detect inhibition of this process. D54 cells expressing a non-ER translated luciferase (LucT) insensitive to inhibition of N-linked glycoysation were used as a secondary screen for false positives. The primary screen was performed in duplicate and values were normalized to the average of positive control wells (Tunicamycin) minus averaged neutral vehicle treated wells per run. Compounds with replicate activity greater than three standard deviations above the mean average of control wells were selected for further study. A subset of 1,845 compounds met this criterion, and were advanced to simultaneous retesting in both the primary screen and a secondary (false positive) cell-based screen. […] Compounds were further triaged from consideration by consulting the Pubchem bioassay database and deprioritizing compounds showing a promiscuity rate higher than 5% across assays or by removing PAINS scaffolds (Baell, et al., J Med Chem 2010, 53, 2719-2740). Remaining compounds were assessed by medicinal chemistry review to score synthetic tractability and known issues with instability, poor solubility, or toxicity. This analysis yielded 39 compounds that were tested in a cell-free assay to detect luciferase inhibitors (Auld, et al., Proc Natl Acad Sci USA 2010, 107, 4878-4883) and by western blot analysis to detect gel mobility changes of the luciferase reporter, consistent with inhibition of N-linked glycosylation. This approach identified one aminobenzamidosulfonamide compound that blocked N-linked glycosylation.
(§2) To better understand the connection between structure and activity, analogs were prepared and tested in the D54-ERLucT cell based assay for inhibition of N-linked glycosylation (FIG. 1B). The assay was used to estimate and compare AC40 values among analogs and to guide the design of improved compounds that inhibited N-linked glycosylation. This effort generated 36 unique compounds with modifications to the amine component of the sulfonamide functionality (red), the pyrrolidine moiety (blue) or the methylaminothiazole group (green). Generally, incorporation of larger sulfonamides (i.e., larger secondary amines appended to the sulphone) was not well tolerated, resulting in erosion of potency (7 analogs). However, steric interactions could be mitigated by the introduction of a hydrogen bond accepting oxygen in a larger cyclic amine. Thus, morpholine was determined to be an acceptable surrogate for the dimethylamine component of the sulfonamide (FIGS. 1A-1D). The pyrrolidine group (blue) was replaced with various alkyl, cycloalkyl, and amine groups (7 compounds). The aminothiazole moiety was derivatized most extensively of all three regions (green highlighted area, 22 analogs). […] Analogs with the highest potency in the luciferase assay were retested with western blot analysis to insure that measurements of luciferase activation corresponded to loss of N-linked glycosylation.

[1] = Celltiter Glo viability assay, HepG2; assay type: cell-based; details: human, HepG2 cells; HEPG2, 72 h of compound exposure; read-out: Cytotoxicity Assay Mean EC50
Text: as §1, §2

[2] = Celltiter Glo viability assay, HEK293; assay type: cell-based; details: human, HEK293 cells; HEK293, 72 h of compound exposure; read-out: Cytotoxicity Assay Mean EC50
Text: as §1, §2

HepG2 cells = experiment: Celltiter Glo viability assay, HepG2; assay type: cell-based; details: HEPG2 EC50 over NLG AC40
Text: as §1, §2

HEK293 cells = experiment: Celltiter Glo viability assay, HEK293; assay type: cell-based; details: HEK293 EC50 over NLG AC40
Text: as §1, §2

| Selectivity (EC50/AC40) (HepG2 cells) | Structure (SMILES) | NLG Inhibition max act, % (N-linked glycosylation) [%] | EC50 at 72 h [1] [µM] | EC50 at 72 h [2] [µM] | NLG Inhibition ASSAY Potency Mean AC40 (N-linked glycosylation) [µM] | Selectivity (EC50/AC40) (HEK293 cells) |
| --- | --- | --- | --- | --- | --- | --- |
| – | CN(C)S(=O)(=O)c1ccc(N2CCCC2)c(C(=O)N2CCOCC2)c1 [Entry 21, N,N-Dimethyl-3-(morpholine-4-carbonyl)-4-(pyrrolidin-1-yl)benzenesulfonamide] | 23.6 | > 30 | > 30 | – | – |
| >2.9 | COc1ccc(NC(=O)c2cc(S(=O)(=O)N(C)C)ccc2N2CCCC2)cc1 [Entry 16, 5-(dimethylsulfamoyl)-N-(4-methoxyphenyl)-2-pyrrolidin-1-ylbenzamide] | 79.9 | > 30 | > 30 | 10.3 | >2.9 |
| >25.0 | Cc1ccc(NC(=O)c2cc(S(=O)(=O)N(C)C)ccc2N2CCCC2)cc1 [Entry 14, 5-(dimethylsulfamoyl)-N-(4-methylphenyl)-2-pyrrolidin-1-ylbenzamide] | 305.0 | > 30 | > 30 | 1.2 | >25.0 |
| – | CN(C)C(=O)c1cc(S(=O)(=O)N(C)C)ccc1N1CCCC1 [Entry 23, 5-(dimethylsulfamoyl)-N,N-dimethyl-2-pyrrolidin-1-ylbenzamide] | 32.1 | > 30 | > 30 | – | – |
| – | CN(C)S(=O)(=O)c1ccc(N2CCCC2)c(C(=O)Nc2ccccc2F)c1 [Entry 17, 5-(dimethylsulfamoyl)-N-(2-fluorophenyl)-2-pyrrolidin-1-ylbenzamide] | – | > 30 | > 30 | – | – |
| – | CN(C)S(=O)(=O)c1ccc(N2CCCC2)c(C(=O)Nc2ccncc2)c1 [Entry 11, 5-(dimethylsulfamoyl)-N-pyridin-4-yl-2-pyrrolidin-1-ylbenzamide] | 25 | > 30 | > 30 | – | – |
| – | CN(C)S(=O)(=O)c1ccc(N2CCCC2)c(C(=O)NC2CCCCC2)c1 [Entry 22, N-cyclohexyl-5-(dimethylsulfamoyl)-2-pyrrolidin-1-ylbenzamide] | – | > 30 | > 30 | – | – |
| >27.8 | CN(C)S(=O)(=O)c1ccc(N2CCCC2)c(C(=O)Nc2ccccc2)c1 [Entry 12, 5-(dimethylsulfamoyl)-N-phenyl-2-pyrrolidin-1-ylbenzamide] | 183.0 | > 30 | > 30 | 1.1 | >27.8 |
| >11.5 | CN(C)S(=O)(=O)c1ccc(N2CCCC2)c(C(=O)Nc2cccc(F)c2)c1 [Entry 18, 5-(dimethylsulfamoyl)-N-(3-fluorophenyl)-2-pyrrolidin-1-ylbenzamide] | 107.7 | > 30 | > 30 | 2.6 | >11.5 |
| – | CN(C)S(=O)(=O)c1ccc(N2CCCC2)c(C(=O)Nc2cccnc2)c1 [Entry 10, 5-(dimethylsulfamoyl)-N-pyridin-3-yl-2-pyrrolidin-1-ylbenzamide] | 48.4 | > 30 | > 30 | – | – |
| – | Cc1ccccc1NC(=O)c1cc(S(=O)(=O)N(C)C)ccc1N1CCCC1 [Entry 13, 5-(dimethylsulfamoyl)-N-(2-methylphenyl)-2-pyrrolidin-1-ylbenzamide] | 10.7 | > 30 | > 30 | – | – |
| >2.3 | COc1ccc2nc(NC(=O)c3cc(S(=O)(=O)N(C)C)ccc3N3CCCC3)sc2c1 [Entry 9, 5-(dimethylsulfamoyl)-N-(6-methoxy-1,3-benzothiazol-2-yl)-2-pyrrolidin-1-ylbenzamide] | 85.7 | > 30 | > 30 | 13.1 | >2.3 |
| – | CN(C)S(=O)(=O)c1ccc(N2CCCC2)c(C(=O)Nc2ccccc2Cl)c1 [Entry 19, 5-(dimethylsulfamoyl)-N-(2-chlorophenyl)-2-pyrrolidin-1-ylbenzamide] | 24.7 | > 30 | > 30 | – | – |
| – | CN(C)S(=O)(=O)c1ccc(N2CCCC2)c(C(=O)Nc2ccc(Br)cc2)c1 [Entry 20, 5-(dimethylsulfamoyl)-N-(4-bromophenyl)-2-pyrrolidin-1-ylbenzamide] | 32 | > 30 | > 30 | – | – |
| – | COc1ccccc1NC(=O)c1cc(S(=O)(=O)N(C)C)ccc1N1CCCC1 [Entry 15, 5-(dimethylsulfamoyl)-N-(2-methoxyphenyl)-2-pyrrolidin-1-ylbenzamide] | 30.1 | > 30 | > 30 | – | – |
